Measurements published in ChEMBL document CHEMBL1155249, “Molecular modifications on carboxylic acid derivatives as potent histone deacetylase inhibitors: Activity and docking studies” (Bioorg Med Chem, 2009).

target: Histone deacetylase; assay: Inhibition of HDAC in human Hela cells nuclear extracts by fluorimetric assay; assay type: cell-based

SMILES	Ki	IC50
CCCC(=O)O [BUTYRIC ACID]	136 µM	
NCCCC(=O)O [GAMMA-AMINOBUTYRIC ACID]	8.19 µM	
O=C([O-])CCCc1ccccc1.[Na+] [SODIUM PHENYLBUTYRATE]	6.34 µM	
O=C(O)/C=C/c1ccccc1 [CINNAMIC ACID]	0.00821 µM	
O=C(O)/C=C/c1ccc(O)c(O)c1 [CAFFEIC ACID]	10.84 µM	2540 µM
CCCC(=O)[O-].[Na+] [SODIUM BUTYRATE]	365 µM	800 µM
O=C(/C=C/c1ccc(O)c(O)c1)O[C@@H]1C[C@](O)(C(=O)O)C[C@@H](O)[C@H]1O [CHLOROGENIC ACID]	0.135 µM	375 µM
